Measured values reported in DBAASP.
Converted amounts (≈) assume the structure as drawn.

Experiments:
Assay in all cases: ≥ marks a high value that may be exact or a test limit, other limits are often not marked, values filed in µg/mL are converted to µM
[1] = tested on: Pseudomonas aeruginosa PAO1
[2] = tested on: Pseudomonas aeruginosa Ps6
[3] = tested on: Pseudomonas aeruginosa Ps64
[4] = tested on: Pseudomonas aeruginosa Ps4
[5] = tested on: Pseudomonas aeruginosa TNP004
[6] = tested on: Pseudomonas aeruginosa Ps1
[7] = tested on: Pseudomonas aeruginosa Ps21
[8] = tested on: Pseudomonas aeruginosa Ps71
[9] = tested on: Pseudomonas aeruginosa PAOLC1-6
[10] = tested on: Pseudomonas aeruginosa Ps2
[11] = tested on: Pseudomonas aeruginosa Ps74
[12] = tested on: Escherichia coli ATCC 25922
[13] = tested on: Staphylococcus aureus ATCC 25923
Pseudomonas aeruginosa = tested on: Pseudomonas aeruginosa
Escherichia coli = tested on: Escherichia coli
[14] = tested on: Staphylococcus aureus ATCC 43300
[15] = tested on: Haemophilus influenzae ATCC 49766
Enterobacter cloacae = tested on: Enterobacter cloacae
Staphylococcus aureus = tested on: Staphylococcus aureus
[16] = tested on: Enterococcus faecalis ATCC 29212
Candida albicans = tested on: Candida albicans
[17] = tested on: Candida albicans ATCC 2002
[18] = tested on: Haemophilus influenzae ATCC 49247
[19] = tested on: Enterobacter cloacae ATCC 13047
Klebsiella aerogenes = tested on: Klebsiella aerogenes
[20] = tested on: Klebsiella pneumoniae ATCC 13883
Escherichia coli ML-35p = tested on: Escherichia coli ML-35p
[21] = tested on: Klebsiella pneumoniae ATCC 700603
[22] = tested on: Pseudomonas syringae pv. syringae EPS 94
[23] = tested on: Xanthomonas campestris pv. Vesicatoria 2133-2
[24] = tested on: Erwinia amylovora PMV 6076
Escherichia coli DC2 = tested on: Escherichia coli DC2
Escherichia coli K-12 = tested on: Escherichia coli K-12
[25] = tested on: Staphylococcus aureus UAMS-1
[26] = tested on: Staphylococcus aureus PEP 4/3
Bacillus subtilis = tested on: Bacillus subtilis
Escherichia coli W160-37 = tested on: Escherichia coli W160-37
[27] = tested on: Pseudomonas putida NCIM 2102
[28] = tested on: Cronobacter muytjensii ATCC 51329
[29] = tested on: Cronobacter sakazakii DSM 4485
[30] = tested on: Staphylococcus aureus RF122
[31] = tested on: Cronobacter sakazakii ATCC BAA-894
[32] = tested on: Escherichia coli NCIMB 11843
[33] = tested on: Salmonella enterica subsp. enterica serovar Typhimurium LT2
[34] = tested on: Staphylococcus aureus NCTC 8325-4
[35] = tested on: Staphylococcus aureus SA113
[36] = tested on: Staphylococcus aureus RN4220
[37] = tested on: Klebsiella pneumoniae NCIMB 13218
[38] = tested on: Cronobacter sakazakii DPC 6440
[39] = tested on: Staphylococcus aureus Newman
[40] = tested on: Pseudomonas fluorescens NCIMB 9046

With `NC(=O)[C@H](CCCN=C(N)N)NC(=O)[C@H](CCCN=C(N)N)NC(=O)[C@H](Cc1c[nH]c2ccccc12)NC(=O)[C@H](Cc1ccccc1)NC(=O)[C@H](CCCN=C(N)N)NC(=O)[C@H](CCCN=C(N)N)NC(=O)[C@H](Cc1c[nH]c2ccccc12)NC(=O)[C@@H](N)Cc1ccccc1` [FWRRFWRR] as the molecule, how does the MIC [1] read?
The MIC was 34.3 µM (≈ 44.9 µg/mL).

What about the MIC [2] of the same molecule?
Its MIC is no less than 34.3 µM.

What about the MIC [3] of the same molecule?
The MIC was no less than 135 µM.

And the MIC [4]?
The MIC was no less than 47.7 µM.

What about the MIC [5] of the same molecule?
Its MIC is no less than 34.3 µM.

What about the MIC [6] of the same molecule?
Its MIC is no less than 34.3 µM.

What about the MIC [7] of the same molecule?
The MIC was no less than 135 µM.

And the MIC [8]?
The MIC was no less than 34.3 µM.

And the MIC [9]?
The MIC was no less than 34.3 µM.

And the MIC [10]?
Its MIC is no less than 135 µM.

And the MIC [11]?
The MIC was no less than 135 µM.

Which MIC [12] does the source give for `CC(C)C[C@H](NC(=O)[C@H](CCCCN)NC(=O)[C@H](CCCCN)NC(=O)[C@H](Cc1ccccc1)NC(=O)[C@H](Cc1ccccc1)NC(=O)[C@@H](N)CCCCN)C(=O)N[C@@H](CCCCN)C(=O)N[C@@H](CCCCN)C(=O)N[C@@H](C)C(=O)N[C@H](C(=O)N[C@@H](CCCCN)C(=O)N[C@@H](CCCCN)C(=O)NCC(=O)N[C@@H](Cc1ccccc1)C(=O)N[C@@H](CCCCN)C(=O)N[C@@H](CCCCN)C(=O)N[C@@H](Cc1ccccc1)C(=O)N[C@@H](C)C(=O)N[C@@H](CCCCN)C(=O)N[C@H](C(=O)O)C(C)C)C(C)C` [KFFKKLKKAVKKGFKKFAKV] here?
Its MIC is 5.21 µM (≈ 12.5 µg/mL).

What about the MIC [1] of the same molecule?
The MIC was 5.21 µM (≈ 12.5 µg/mL).

What about the MIC [13] of the same molecule?
Its MIC is 5.21 µM (≈ 12.5 µg/mL).

What about the MIC (Pseudomonas aeruginosa) of the same molecule?
The MIC was 5.21 µM (≈ 12.5 µg/mL).

And the MIC (Escherichia coli)?
The MIC was 5.21 µM (≈ 12.5 µg/mL).

And the MIC [14]?
Its MIC is 1.3 µM (≈ 3.13 µg/mL).

And the MIC [15]?
The MIC was 2.61 µM (≈ 6.25 µg/mL).

What about the MIC (Enterobacter cloacae) of the same molecule?
Its MIC is no less than 41.7 µM.

What about the MIC (Staphylococcus aureus) of the same molecule?
Its MIC is 5.21 µM (≈ 12.5 µg/mL).

And the MIC [16]?
The MIC was 10.4 µM (≈ 25 µg/mL).

What about the MIC (Candida albicans) of the same molecule?
The MIC was greater than 83.4 µM.

And the MIC [17]?
The MIC was no less than 83.4 µM.

And the MIC [18]?
The MIC was 1.3 µM (≈ 3.13 µg/mL).

What about the MIC [19] of the same molecule?
Its MIC is no less than 41.7 µM.

And the MIC (Klebsiella aerogenes)?
The MIC was no less than 41.7 µM.

What about the MIC [20] of the same molecule?
The MIC was 2.61 µM (≈ 6.25 µg/mL).

What about the MIC (Escherichia coli ML-35p) of the same molecule?
The MIC was 2.61 µM (≈ 6.25 µg/mL).

What about the MIC [21] of the same molecule?
Its MIC is 1.3 µM (≈ 3.13 µg/mL).

`CC[C@H](C)[C@H](NC(=O)[C@H](CCCCN)NC(=O)[C@H](CCCCN)NC(=O)[C@H](Cc1ccccc1)NC(=O)[C@H](CC(C)C)NC(=O)[C@H](CCCCN)NC(=O)[C@H](CCCCN)NC(=O)[C@H](CC(C)C)NC(=O)[C@H](Cc1ccc(O)cc1)NC(=O)[C@H](CCCCN)NC(=O)[C@H](CC(C)C)NC(=O)[C@@H](NC(=O)[C@H](CCCCN)NC(=O)[C@H](CCCCN)NC(=O)[C@H](Cc1ccccc1)NC(=O)[C@H](CC(C)C)NC(=O)[C@H](CCCCN)NC(=O)[C@@H](N)CCCCN)[C@@H](C)CC)C(=O)N[C@@H](CC(C)C)C(=O)N[C@@H](CCCCN)C(=O)N[C@@H](Cc1ccc(O)cc1)C(=O)N[C@@H](CC(C)C)C(=O)O` [KKLFKKILKYLKKLFKKILKYL] was tested. Which MIC [22] did it give?
The MIC was 6.12 µM (≈ 17.3 µg/mL).

What about the MIC [23] of the same molecule?
The MIC was 1.77 µM (≈ 5 µg/mL).

What about the MIC [24] of the same molecule?
Its MIC is 14.1 µM (≈ 40 µg/mL).

What does the source list for `CC[C@H](C)[C@H](NC(=O)[C@H](CCCCN)NC(=O)[C@H](CCC(=O)O)NC(=O)[C@H](CCCCN)NC(=O)[C@H](C)NC(=O)[C@H](CCCCN)NC(=O)[C@H](CCCN=C(N)N)NC(=O)[C@H](Cc1ccccc1)NC(=O)[C@H](Cc1ccccc1)NC(=O)[C@H](CC(=O)O)NC(=O)CNC(=O)[C@H](CC(C)C)NC(=O)[C@@H](N)CC(C)C)C(=O)NCC(=O)N[C@@H](CCCCN)C(=O)N[C@@H](CCC(=O)O)C(=O)N[C@@H](Cc1ccccc1)C(=O)N[C@@H](CCCCN)C(=O)N[C@@H](CCCN=C(N)N)C(=O)N[C@H](C(=O)N[C@H](C(=O)N[C@@H](CCC(N)=O)C(=O)N[C@@H](CCCN=C(N)N)C(=O)O)C(C)C)[C@@H](C)CC` [LLGDFFRKAKEKIGKEFKRIVQR]?
MIC (Escherichia coli DC2): 9 µM (≈ 25.3 µg/mL); MIC (Escherichia coli K-12): ≥ 80 µM; MIC (Staphylococcus aureus): > 24 µM; MIC [25]: ≥ 160 µM

`CC[C@H](C)[C@H](NC(=O)[C@H](Cc1c[nH]c2ccccc12)NC(=O)[C@H](CCCCN)NC(=O)[C@H](CO)NC(=O)[C@H](CC(C)C)NC(=O)[C@H](Cc1ccccc1)NC(=O)[C@@H](NC(=O)[C@H](CCC(=O)O)NC(=O)[C@H](CC(C)C)NC(=O)[C@H](CC(C)C)NC(=O)[C@H](CCCCN)NC(=O)[C@@H]1CCCN1C(=O)[C@H](CC(N)=O)NC(=O)[C@H](C)NC(=O)[C@H](CC(C)C)NC(=O)[C@H](CCCN=C(N)N)NC(=O)[C@H](CC(N)=O)NC(=O)[C@H](C)NC(=O)[C@H](CC(C)C)NC(=O)[C@H](CCCCN)NC(=O)[C@H](C)NC(=O)[C@H](Cc1ccc(O)cc1)NC(=O)[C@H](CCCN=C(N)N)NC(=O)[C@H](CO)NC(=O)[C@H](CC(C)C)NC(=O)[C@@H](N)CO)[C@@H](C)O)C(=O)NCC(=O)O` [SLSRYAKLANRLANPKLLETFLSKWIG] was tested. Which MIC [26] did it give?
The MIC was 14.5 µM (≈ 44.7 µg/mL).

And the MIC (Bacillus subtilis)?
Its MIC is 4.58 µM (≈ 14.1 µg/mL).

What about the MIC (Escherichia coli W160-37) of the same molecule?
The MIC was 4.58 µM (≈ 14.1 µg/mL).

And the MIC [27]?
The MIC was 17.7 µM (≈ 54.8 µg/mL).

For `CC[C@H](C)[C@H](NC(=O)[C@@H](N)C(C)C)C(=O)N[C@@H](CC(N)=O)C(=O)N[C@@H](CCC(=O)O)C(=O)N[C@@H](CC(N)=O)C(=O)N[C@@H](CC(C)C)C(=O)N[C@@H](CC(C)C)C(=O)N[C@@H](CCCN=C(N)N)C(=O)O` [VINENLLR], which MIC [28] is on record?
Its MIC is no less than 1250 µM.

What about the MIC [29] of the same molecule?
Its MIC is no less than 1250 µM.

What about the MIC [30] of the same molecule?
The MIC was no less than 1250 µM.

What about the MIC [31] of the same molecule?
The MIC was no less than 1250 µM.

What about the MIC [32] of the same molecule?
The MIC was no less than 2500 µM.

And the MIC [33]?
The MIC was no less than 2500 µM.

And the MIC [34]?
Its MIC is no less than 625 µM.

What about the MIC [35] of the same molecule?
The MIC was no less than 1250 µM.

And the MIC [36]?
Its MIC is no less than 1250 µM.

What about the MIC [37] of the same molecule?
The MIC was no less than 2500 µM.

And the MIC [38]?
Its MIC is no less than 1250 µM.

And the MIC [39]?
The MIC was no less than 1250 µM.

And the MIC [40]?
The MIC was no less than 2500 µM.
